The values below come from patent US9012420B2, “Aptamer for chymase, and use thereof” (Ribomic Inc., priority 2009, dated 2015).

Series [1] addresses T1, chymase (recombinant, manufactured by SIGMA) (Homo sapiens, UniProt P23946).
T1 construct: purchased SIGMA; host or cells: yeast
T1 sequence (P23946 22-247): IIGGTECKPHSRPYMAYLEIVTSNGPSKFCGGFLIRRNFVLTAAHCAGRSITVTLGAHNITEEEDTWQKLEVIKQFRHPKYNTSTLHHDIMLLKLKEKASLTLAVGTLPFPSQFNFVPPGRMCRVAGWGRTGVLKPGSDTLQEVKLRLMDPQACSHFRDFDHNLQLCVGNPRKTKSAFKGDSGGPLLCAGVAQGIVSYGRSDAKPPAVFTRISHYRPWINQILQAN
In words: Surface plasmon resonance (Biacore T100), chymase immobilized on CM5 chip, nucleic acid injected as analyte. Type of series: binding. Also noted: key to Binding activity as determined using Biacore: ++: a sequence that binds to chymase significantly more strongly than the negative control 40N; +: a sequence that binds to chymase equivalently compared with the negative control 40N; key to binding activity using Biacore: ++: significant binding to chymase than SEQ ID NO: 58 which is a negative control; +: similar binding level as SEQ ID NO: 58 which is a negative control. Conditions: for Binding activity as determined using Biacore: Table 4, about 4000 RU chymase immobilized, nucleic acid 0.3 μM, solution C, compared with 40N; for binding activity using Biacore: same manner as Example 4, compared with SEQ ID NO: 58. As to the method:
In another method, chymase is first immobilized onto a sensor chip, the amount immobilized being about 4000 RU. 20 μL of an aptamer solution for analyte, prepared at 0.01 μg/μL, is injected, and the binding of the aptamer to chymase is detected. An RNA containing a random nucleotide sequence of 30 or 40 nucleotides is used as a negative control.
Whether these nucleic acids bind to chymase was determined by the surface plasmon resonance method. Measurements were taken using Biacore T100 (manufactured by GE Healthcare) as described below. About 4000 RU of chymase (recombinant, manufactured by SIGMA) was immobilized on the sensor chip surface of a CM5 chip, using an amine coupling kit. 20 μL of each nucleic acid, prepared at 0.3 μM, as an analyte was injected at a flow rate of 20 μL/min. Solution C was used as a running buffer. The method of evaluation used was the same as Example 1.
All nucleic acids of SEQ ID NO: 58-68 were prepared by chemical synthesis. Whether these nucleic acids are bound to chymase was assessed by surface plasmon resonance method in the same manner as in Example 4. The inhibitory activity on chymase was measured in the same manner as in Example 3.
All nucleic acids of SEQ ID NOs: 73-79, 56(8), 80, 56(10), 81, 56(13)-56(14), 83-87 were prepared by chemical synthesis. Whether these nucleic acids are bound to chymase was assessed by surface plasmon resonance method in the same manner as in Example 4.
All nucleic acids of SEQ ID NO: 88-120, 121, 69, 122, 123, 70-72, 124-131 were prepared by chemical synthesis. Whether these nucleic acids are bound to chymase was assessed by surface plasmon resonance method in the same manner as in Example 4.

The target of series [2] is T1, chymase (recombinant, manufactured by SIGMA). In words: Chymase inhibitory activity using synthetic substrate Suc-Ala-Ala-Pro-Phe-MCA. Type of series: biochemical. A digest of the protocol: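 Human recombinant chymase (16.7 nM or 1.67 nM final) preincubated 5 min at 37° C., then added to nucleic acid (0.0027–2 μM serial dilutions) and 100 μM substrate in solution C. AMC fluorescence (ex 380/em 460 nm) followed 5 or 30 min at 37° C.; slope gives initial velocity, inhibition versus no-inhibitor control yields IC50.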

[3] abbreviates: Table 4, same manner as Example 3, mean value for 2 to 3 measurements.
Where [4] appears, read: Table 6, same manner as Example 3, mean value of two measurements.
Setting [5] is: Table 5, same manner as Example 3, mean value of two measurements.
[6] abbreviates: Table 7, same manner as Example 3, mean value of two measurements.
[7] abbreviates: Table 3, substrate 100 μM, solution C, 37° C., mean value for 2 to 3 measurements.

Oligonucleotides are written 5' to 3', each unit as a sugar letter and its base; * is a phosphorothioate linkage, no mark a phosphodiester; rarer units and linkages stand in square brackets, end groups in braces. Plain capitals give the bases only. r = 2'-OH (RNA); f = 2'-fluoro

In the case of “53 (GGGUAACUAUGGUUAGAUAGAGUUAAAAACCAUAGAAGACCC; 2'-fluoro at CU, RNA at AG, backbone not given here) [compound 53]”, the “Binding activity as determined using Biacore” value (from here on “Binding activity as determined”) in series [1] is given as “++”. The 50% inhibitory concentration (IC50) in series [2] (setting [3]) was found to be 66 ± 24 nM.

Take “54 (UAACUAUGGUUAGAUAGAGUUAAAAACCAUAGAAGA; 2'-fluoro at CU, RNA at AG, backbone not given here) [compound 54]”: the “Binding activity as determined” value in series [1] is “++”. Moreover, the IC50 in series [2] (setting [3]) is 51 ± 33 nM.

“55 (CUAUGGUUAGAUAGAGUUAAAAACCAUAG; 2'-fluoro at CU, RNA at AG, backbone not given here) [compound 55]”: in series [1], the “Binding activity as determined” value is reported as “++”. In series [2] (setting [3]), the IC50 is 55 ± 23 nM.

As for “56 (GGGUUAGAUAGAGUUAAAAACCC; 2'-fluoro at CU, RNA at AG, backbone not given here) [compound 56]”, in series [1], the “Binding activity as determined” value was “++”. For the same molecule, the “binding activity using Biacore” value in series [1] (Table 6) is on record as “++”. The values for the IC50 in series [2] (setting [3]) and in series [2] (setting [4]) were 46 ± 31 nM and 27 ± 2 nM, respectively.

Take “58 (GGGUUGAAGAUAUUAAAGAACCC; 2'-fluoro at CU, RNA at AG, backbone not given here) [compound 58]”: in series [1] (Table 5), the “binding activity using Biacore” value was “+”. For the same molecule, in series [2] (setting [5]), the IC50 was above 1000 nM.

For “65 (rGrGfCrArGrAfUrArGrArGfUfUrArArArGfCfC) [compound 65]”, the “binding activity using Biacore” value in series [1] (Table 5) is “++”. For the same molecule, in series [2] (setting [5]), the IC50 came out at 56 ± 46 nM.

As to “70 (GGGTTAGAUAGAGUUAAAAACCC; chemistry not given here) [compound 70]”, the “binding activity using Biacore” value in series [1] (Table 7) is “++”. Besides, the IC50 in series [2] (setting [6]) was 27 ± 4 nM.

Regarding “71 (GGGUUAGAUAGAGTUAAAAACCC; chemistry not given here) [compound 71]”, the “binding activity using Biacore” value in series [1] (Table 7) is on record as “++”. Also, the IC50 in series [2] (setting [6]) is 28 ± 5 nM.

On to “72 (GGGTTAGAUAGAGTUAAAAACCC; chemistry not given here) [compound 72]”, for which the “binding activity using Biacore” value in series [1] (Table 7) is on record as “++”. Besides, the IC50 in series [2] (setting [6]) came out at 20 ± 2 nM.

Take `CC(C)C[C@H](NC(=O)[C@@H](NC(=O)N[C@@H](Cc1ccccc1)C(=O)O)[C@@H]1CCN=C(N)N1)C(=O)N[C@H](C=O)Cc1ccccc1` [chymostatin, reference compound]: the IC50 in series [2] (setting [7]) was 100 to 200 nM.

As for “GGGU(F)U(F)GAAGAU(F)AU(F)U(F)AAAGAAC(F)C(F)C(F) (GGGUUGAAGAUAUUAAAGAACCC; 2'-fluoro at CU, RNA at AG, backbone not given here) [SEQ ID NO: 58]”, the IC50 in series [2] (setting [5]), in series [2] (setting [4]) and in series [2] (setting [6]) was above 1000 nM throughout.

B1: 13 (nucleic acid)
chain: rGrGrGrAfCrGrGfUrArGrGrArAfUfUfCfCrGfCrArAfCfCrAfUfCfCfCrGfUrArAfCfUrAfUrGrGfUfUrArGrAfUrArGrArGfUfUrArArArArAfCfCrAfUrArGrArArGrArGfCrGrGfCfCrGfC
modifications: aptamer
On to B1, for which the IC50 in series [2] (setting [7]) turned out to be 58 ± 24 nM.

B2: 14 (nucleic acid)
chain: rGrGrGrAfCrGrGfUrArGrGrArAfUfUfCfUfCrGfUfUfCfCfUrGrAfCrArGfCrAfUfUfUrGrArGrAfUrArGrAfUfUfUrArArAfCrArArAfCrGfCrAfCrAfUrArGrArArGrArGfCrGrGfCfCrGfC
modifications: aptamer
As to B2, the IC50 in series [2] (setting [7]) stood at 61 ± 53 nM.

B3: 4 (nucleic acid)
chain: rGrGrGrAfCrGrGfUrArGrGrArAfUfUfCrGfUfCfCrAfUfUfCfUrAfCrArGrAfUrArGrArGrAfUrArArArGfUrArGrArAfUfUfUrArAfCrArArArAfCrAfUrArGrArArGrArGfCrGrGfCfCrGfC
modifications: aptamer
For B3, the IC50 in series [2] (setting [7]) was determined as 49 ± 3 nM.
